In ChEMBL document CHEMBL4507276 (2021):

Key:
Settings in all cases: Compound concentration 1000.0 nM
[1] = target: T1, Serine/threonine-protein kinase DCLK2 (Homo sapiens) (UniProt Q8N568)
T1 sequence (whole entry): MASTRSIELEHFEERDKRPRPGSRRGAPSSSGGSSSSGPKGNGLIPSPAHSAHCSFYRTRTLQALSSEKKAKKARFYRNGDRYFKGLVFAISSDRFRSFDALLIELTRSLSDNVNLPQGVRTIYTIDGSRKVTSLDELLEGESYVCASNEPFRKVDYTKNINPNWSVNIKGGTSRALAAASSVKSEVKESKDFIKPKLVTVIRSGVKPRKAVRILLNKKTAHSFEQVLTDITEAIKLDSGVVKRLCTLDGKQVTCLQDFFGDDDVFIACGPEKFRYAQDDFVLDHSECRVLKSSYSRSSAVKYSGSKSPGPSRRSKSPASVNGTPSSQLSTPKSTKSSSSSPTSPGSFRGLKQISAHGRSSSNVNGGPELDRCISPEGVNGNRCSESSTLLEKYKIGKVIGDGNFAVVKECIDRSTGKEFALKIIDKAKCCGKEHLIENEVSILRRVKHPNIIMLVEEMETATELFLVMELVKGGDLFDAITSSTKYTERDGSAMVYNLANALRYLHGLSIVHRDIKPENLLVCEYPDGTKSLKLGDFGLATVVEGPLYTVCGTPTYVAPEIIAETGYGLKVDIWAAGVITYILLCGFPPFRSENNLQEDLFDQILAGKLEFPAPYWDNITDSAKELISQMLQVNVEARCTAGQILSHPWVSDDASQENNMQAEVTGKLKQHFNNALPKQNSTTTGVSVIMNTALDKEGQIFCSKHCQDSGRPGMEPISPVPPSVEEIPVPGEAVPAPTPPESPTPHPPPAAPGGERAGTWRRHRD

[2] = target: Casein kinase II subunit alpha (Homo sapiens) (UniProt P68400)
[3] = target: Serine/threonine-protein kinase PLK2 (Homo sapiens) (UniProt Q9NYY3)
[4] = target: Insulin receptor (Homo sapiens) (UniProt P06213)
Chain of Insulin receptor (Homo sapiens) (P06213 28-758 limits assumed): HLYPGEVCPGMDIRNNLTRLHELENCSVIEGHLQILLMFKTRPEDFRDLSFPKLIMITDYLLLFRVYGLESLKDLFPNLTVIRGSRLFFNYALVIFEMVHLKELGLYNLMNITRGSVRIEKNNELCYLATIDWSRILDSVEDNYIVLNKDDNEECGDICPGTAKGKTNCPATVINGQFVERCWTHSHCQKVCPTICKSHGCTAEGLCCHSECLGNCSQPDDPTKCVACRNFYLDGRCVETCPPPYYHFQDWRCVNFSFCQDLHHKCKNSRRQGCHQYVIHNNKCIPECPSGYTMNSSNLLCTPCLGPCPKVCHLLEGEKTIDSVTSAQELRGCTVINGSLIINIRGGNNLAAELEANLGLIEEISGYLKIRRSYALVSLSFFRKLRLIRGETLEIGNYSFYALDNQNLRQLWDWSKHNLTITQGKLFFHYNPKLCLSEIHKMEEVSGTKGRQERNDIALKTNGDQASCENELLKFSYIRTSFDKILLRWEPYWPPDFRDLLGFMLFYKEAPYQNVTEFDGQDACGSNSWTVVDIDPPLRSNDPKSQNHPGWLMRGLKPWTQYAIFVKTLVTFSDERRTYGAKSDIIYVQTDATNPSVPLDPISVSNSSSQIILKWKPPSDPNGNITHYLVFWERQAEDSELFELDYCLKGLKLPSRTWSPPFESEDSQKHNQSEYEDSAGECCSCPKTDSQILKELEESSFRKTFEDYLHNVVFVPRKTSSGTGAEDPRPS
Chain of Insulin receptor (Homo sapiens) (P06213 763-1382 limits assumed): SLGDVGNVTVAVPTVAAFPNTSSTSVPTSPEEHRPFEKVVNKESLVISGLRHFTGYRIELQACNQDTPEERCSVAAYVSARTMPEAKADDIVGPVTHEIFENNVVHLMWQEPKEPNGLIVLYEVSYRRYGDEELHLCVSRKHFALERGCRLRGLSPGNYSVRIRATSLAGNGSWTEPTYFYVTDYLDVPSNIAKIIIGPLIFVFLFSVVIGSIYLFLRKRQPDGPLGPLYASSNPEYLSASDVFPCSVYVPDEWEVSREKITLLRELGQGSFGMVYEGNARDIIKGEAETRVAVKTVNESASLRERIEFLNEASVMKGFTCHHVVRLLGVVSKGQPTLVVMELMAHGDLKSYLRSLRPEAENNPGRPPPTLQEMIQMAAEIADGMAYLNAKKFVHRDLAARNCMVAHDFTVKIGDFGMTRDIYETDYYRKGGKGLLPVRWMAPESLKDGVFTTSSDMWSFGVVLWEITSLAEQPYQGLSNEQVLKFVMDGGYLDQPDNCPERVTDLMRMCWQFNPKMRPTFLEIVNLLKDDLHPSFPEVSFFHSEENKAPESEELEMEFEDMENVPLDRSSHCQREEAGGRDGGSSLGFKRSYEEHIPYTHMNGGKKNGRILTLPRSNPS

[5] = target: Serine/threonine-protein kinase MAK (Homo sapiens) (UniProt P20794)
[6] = target: Transient receptor potential cation channel subfamily M member 6 (Homo sapiens) (UniProt Q9BX84)
[7] = target: Casein kinase I isoform alpha (Homo sapiens) (UniProt P48729)
Chain of Casein kinase I isoform alpha (Homo sapiens) (P48729 2-337 limits assumed): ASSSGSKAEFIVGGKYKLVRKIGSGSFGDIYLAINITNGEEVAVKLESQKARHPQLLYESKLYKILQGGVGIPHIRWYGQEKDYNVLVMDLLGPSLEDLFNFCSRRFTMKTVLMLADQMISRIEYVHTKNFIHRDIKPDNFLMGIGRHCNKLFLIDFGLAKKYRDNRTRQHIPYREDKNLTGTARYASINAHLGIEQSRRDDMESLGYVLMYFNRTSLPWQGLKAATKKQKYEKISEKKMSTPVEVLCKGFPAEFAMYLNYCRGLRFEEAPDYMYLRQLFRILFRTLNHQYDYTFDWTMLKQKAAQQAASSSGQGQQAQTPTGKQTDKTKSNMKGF

[8] = system: Proto-oncogene tyrosine-protein kinase receptor Ret (Homo sapiens), P07949 [V804L]
Chain of Proto-oncogene tyrosine-protein kinase receptor Ret (Homo sapiens), P07949 [V804L] (P07949 whole entry V804L): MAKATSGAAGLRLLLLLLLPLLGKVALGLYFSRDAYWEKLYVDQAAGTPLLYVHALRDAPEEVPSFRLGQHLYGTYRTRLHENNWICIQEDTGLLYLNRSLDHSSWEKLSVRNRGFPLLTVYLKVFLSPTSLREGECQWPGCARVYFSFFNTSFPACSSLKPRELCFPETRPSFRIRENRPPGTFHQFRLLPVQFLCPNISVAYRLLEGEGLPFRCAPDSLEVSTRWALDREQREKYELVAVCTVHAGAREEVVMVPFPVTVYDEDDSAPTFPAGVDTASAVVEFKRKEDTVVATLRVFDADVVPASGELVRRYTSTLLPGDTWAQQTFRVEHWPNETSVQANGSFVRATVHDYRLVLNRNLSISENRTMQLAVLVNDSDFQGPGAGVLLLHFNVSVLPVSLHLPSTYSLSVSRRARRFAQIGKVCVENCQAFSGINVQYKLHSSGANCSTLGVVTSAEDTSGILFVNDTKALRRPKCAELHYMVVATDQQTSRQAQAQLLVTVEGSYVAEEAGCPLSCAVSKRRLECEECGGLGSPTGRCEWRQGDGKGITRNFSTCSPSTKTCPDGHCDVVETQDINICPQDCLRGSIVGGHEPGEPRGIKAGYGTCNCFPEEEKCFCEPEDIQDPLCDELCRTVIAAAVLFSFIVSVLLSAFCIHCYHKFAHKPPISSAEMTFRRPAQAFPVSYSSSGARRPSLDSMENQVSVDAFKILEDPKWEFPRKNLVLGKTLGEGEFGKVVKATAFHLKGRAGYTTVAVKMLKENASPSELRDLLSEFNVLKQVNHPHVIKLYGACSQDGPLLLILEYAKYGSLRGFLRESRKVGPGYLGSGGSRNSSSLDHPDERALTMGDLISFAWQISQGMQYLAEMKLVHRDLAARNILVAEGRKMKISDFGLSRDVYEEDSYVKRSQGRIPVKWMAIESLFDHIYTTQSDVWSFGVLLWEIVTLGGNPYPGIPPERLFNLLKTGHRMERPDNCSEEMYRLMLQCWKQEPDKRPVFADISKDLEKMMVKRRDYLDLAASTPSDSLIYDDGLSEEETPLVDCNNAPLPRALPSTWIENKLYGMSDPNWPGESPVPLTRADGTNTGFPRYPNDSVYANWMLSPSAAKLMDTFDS

[9] = target: T2, Tyrosine-protein kinase Mer (Homo sapiens) (UniProt Q12866)
T2 sequence (whole entry): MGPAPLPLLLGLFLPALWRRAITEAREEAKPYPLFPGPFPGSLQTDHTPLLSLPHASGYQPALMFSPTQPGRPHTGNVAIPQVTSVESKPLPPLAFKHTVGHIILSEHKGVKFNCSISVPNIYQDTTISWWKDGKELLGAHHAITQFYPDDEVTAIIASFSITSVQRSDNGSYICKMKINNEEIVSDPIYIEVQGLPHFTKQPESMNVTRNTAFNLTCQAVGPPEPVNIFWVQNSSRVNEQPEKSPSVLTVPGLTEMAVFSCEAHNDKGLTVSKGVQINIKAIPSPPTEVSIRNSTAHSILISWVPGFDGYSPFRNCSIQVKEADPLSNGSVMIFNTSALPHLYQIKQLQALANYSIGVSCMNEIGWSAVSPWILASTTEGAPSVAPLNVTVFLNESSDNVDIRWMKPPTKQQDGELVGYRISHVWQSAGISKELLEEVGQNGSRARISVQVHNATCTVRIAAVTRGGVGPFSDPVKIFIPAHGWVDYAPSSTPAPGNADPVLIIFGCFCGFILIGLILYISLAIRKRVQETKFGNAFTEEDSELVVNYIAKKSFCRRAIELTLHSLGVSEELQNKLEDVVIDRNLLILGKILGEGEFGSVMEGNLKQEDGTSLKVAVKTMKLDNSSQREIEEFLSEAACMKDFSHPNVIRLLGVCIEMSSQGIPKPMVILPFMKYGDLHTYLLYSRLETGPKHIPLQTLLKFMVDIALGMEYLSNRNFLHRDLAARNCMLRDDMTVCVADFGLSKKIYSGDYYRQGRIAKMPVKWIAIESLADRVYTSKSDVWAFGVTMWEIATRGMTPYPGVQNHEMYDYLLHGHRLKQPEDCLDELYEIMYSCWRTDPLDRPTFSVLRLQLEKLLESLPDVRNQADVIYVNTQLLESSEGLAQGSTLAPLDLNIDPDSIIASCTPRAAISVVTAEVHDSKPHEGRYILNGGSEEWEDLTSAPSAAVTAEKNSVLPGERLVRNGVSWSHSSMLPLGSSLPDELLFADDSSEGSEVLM

[10] = target: Casein kinase I isoform gamma-2 (Homo sapiens) (UniProt P78368)
Chain of Casein kinase I isoform gamma-2 (Homo sapiens) (P78368 whole entry, looked up, canonical isoform): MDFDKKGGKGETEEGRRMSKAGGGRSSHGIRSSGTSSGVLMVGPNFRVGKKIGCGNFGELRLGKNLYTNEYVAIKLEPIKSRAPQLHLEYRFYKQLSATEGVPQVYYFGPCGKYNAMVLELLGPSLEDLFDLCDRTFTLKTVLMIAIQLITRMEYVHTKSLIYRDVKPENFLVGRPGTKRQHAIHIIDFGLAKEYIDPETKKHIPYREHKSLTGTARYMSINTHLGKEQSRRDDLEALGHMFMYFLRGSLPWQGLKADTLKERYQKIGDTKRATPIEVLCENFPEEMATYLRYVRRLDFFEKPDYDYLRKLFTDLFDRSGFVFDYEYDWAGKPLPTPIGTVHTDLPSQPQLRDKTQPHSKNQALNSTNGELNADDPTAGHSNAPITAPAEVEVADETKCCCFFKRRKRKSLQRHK

[11] = target: T3, TGF-beta receptor type-1 (Homo sapiens) (UniProt P36897)
T3 sequence (whole entry): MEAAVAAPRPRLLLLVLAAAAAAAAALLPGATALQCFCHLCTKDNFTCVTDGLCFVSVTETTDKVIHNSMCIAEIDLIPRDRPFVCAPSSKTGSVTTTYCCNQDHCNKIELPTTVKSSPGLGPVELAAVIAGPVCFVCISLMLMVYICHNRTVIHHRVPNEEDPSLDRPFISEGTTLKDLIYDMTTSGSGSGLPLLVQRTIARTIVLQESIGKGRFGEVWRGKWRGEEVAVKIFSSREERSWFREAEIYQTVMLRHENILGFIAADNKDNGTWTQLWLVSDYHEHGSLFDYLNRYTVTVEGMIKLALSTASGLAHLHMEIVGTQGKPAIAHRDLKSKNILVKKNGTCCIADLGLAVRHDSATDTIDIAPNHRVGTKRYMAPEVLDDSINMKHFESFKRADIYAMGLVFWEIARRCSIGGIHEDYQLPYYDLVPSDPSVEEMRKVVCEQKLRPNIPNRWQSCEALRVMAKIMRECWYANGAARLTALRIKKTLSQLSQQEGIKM

[12] = target: Cyclin-G-associated kinase (Homo sapiens) (UniProt O14976)
Chain of Cyclin-G-associated kinase (Homo sapiens) (O14976 whole entry, canonical isoform): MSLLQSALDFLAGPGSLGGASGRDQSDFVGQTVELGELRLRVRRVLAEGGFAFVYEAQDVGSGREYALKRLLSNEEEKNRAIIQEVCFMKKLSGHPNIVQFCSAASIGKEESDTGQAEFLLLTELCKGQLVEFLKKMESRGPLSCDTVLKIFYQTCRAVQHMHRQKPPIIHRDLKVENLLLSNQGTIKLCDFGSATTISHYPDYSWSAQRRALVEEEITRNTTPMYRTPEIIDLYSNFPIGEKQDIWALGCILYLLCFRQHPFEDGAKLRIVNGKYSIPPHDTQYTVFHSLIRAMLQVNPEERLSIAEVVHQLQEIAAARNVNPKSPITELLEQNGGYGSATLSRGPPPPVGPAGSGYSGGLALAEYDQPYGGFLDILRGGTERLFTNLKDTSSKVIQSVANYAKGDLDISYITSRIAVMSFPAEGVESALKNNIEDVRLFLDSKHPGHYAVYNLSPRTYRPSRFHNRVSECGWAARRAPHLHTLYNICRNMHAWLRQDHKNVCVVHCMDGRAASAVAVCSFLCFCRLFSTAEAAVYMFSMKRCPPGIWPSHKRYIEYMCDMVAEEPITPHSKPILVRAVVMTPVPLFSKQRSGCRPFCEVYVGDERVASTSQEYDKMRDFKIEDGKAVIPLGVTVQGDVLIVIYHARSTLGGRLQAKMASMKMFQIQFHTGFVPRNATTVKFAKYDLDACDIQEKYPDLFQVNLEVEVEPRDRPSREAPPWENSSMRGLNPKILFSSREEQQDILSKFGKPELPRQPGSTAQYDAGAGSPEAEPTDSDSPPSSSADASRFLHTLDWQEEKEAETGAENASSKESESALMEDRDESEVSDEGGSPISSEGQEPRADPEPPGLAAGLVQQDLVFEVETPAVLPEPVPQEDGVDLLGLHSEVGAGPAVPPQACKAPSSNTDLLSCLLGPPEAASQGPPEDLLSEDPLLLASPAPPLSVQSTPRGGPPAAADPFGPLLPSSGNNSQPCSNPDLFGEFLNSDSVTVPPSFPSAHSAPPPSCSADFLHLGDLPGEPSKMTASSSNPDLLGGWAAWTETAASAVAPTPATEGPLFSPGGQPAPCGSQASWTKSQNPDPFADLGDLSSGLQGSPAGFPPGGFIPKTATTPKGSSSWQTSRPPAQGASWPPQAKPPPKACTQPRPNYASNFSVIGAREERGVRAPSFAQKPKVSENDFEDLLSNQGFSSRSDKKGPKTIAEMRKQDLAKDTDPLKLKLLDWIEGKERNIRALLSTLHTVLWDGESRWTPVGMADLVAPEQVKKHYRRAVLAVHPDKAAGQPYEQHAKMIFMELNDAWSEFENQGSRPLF

[13] = system: Phosphatidylinositol 4,5-bisphosphate 3-kinase catalytic subunit alpha isoform (Homo sapiens), P42336 [Q546K]
[14] = target: Serine/threonine-protein kinase Nek7 (Homo sapiens) (UniProt Q8TDX7)
Chain of Serine/threonine-protein kinase Nek7 (Homo sapiens) (Q8TDX7 whole entry, looked up): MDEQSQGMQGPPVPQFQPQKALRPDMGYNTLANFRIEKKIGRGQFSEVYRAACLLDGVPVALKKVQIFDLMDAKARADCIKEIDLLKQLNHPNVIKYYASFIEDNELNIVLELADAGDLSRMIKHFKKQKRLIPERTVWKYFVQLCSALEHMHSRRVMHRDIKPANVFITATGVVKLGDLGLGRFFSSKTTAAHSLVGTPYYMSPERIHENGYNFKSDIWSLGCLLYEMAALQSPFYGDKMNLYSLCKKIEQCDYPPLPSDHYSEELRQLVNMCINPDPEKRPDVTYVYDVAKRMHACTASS

[15] = target: Myosin light chain kinase, smooth muscle (Homo sapiens) (UniProt Q15746)

Measured: residual activity

CN(C)C(=O)Cn1cc(-c2nc(C3(c4ccc(-c5cnc(N)nc5)cc4)CC3)no2)cn1 [BI 0153]
inactive: [1] 96% | [2] 73% | [3] 93% | [4] 90% | [5] 87% | [6] 86% | [7] 62% | [8] 100% | [9] 88% | [10] 82% | [11] 97% | [12] 100% | [13] 100% | [14] 100% | [15] 72%

CN(C)C(=O)Cn1cc(-c2nc([C@@](C)(c3ccc(-c4cnc(N)nc4)cc3)C3CC3)no2)cn1 [BI 665915]
inactive: [1] 91% | [2] 88% | [3] 56% | [4] 89% | [5] 100% | [6] 78% | [7] 100% | [8] 93% | [9] 100% | [10] 100% | [11] 100% | [12] 100% | [13] 95% | [14] 90% | [15] 84%
